The target of one experiment is T1, DNA-PK (Homo sapiens, UniProt P78527).
T1 construct: purchased Invitrogen PR9107A
The experiment can be described thus: DNA-PK Assay for Biochemical Enzymatic Inhibition (ADP Glo Kinase assay). The method, then:
A biochemical assay was performed to identify IC50 values against DNA-PK activity in a two-step reaction with a kinase reaction followed by ADP Glo™ Kinase assay Kit (Promega V9102).
Three-fold serial dilutions of compounds in DMSO were prepared in kinase assay buffer (50 mM HEPES pH 7.5, 20 mM MgCl2, 100 mM KCl, 50 μM DTT, 10 μg/ml calf thymus DNA, 0.01% Tween 20). Kinase assay buffer was used to prepare compound treatments to 0.02% DMSO (dimethyl sulphoxide) content. DMSO controls were prepared to produce a maximum and minimum luminescence signal for normalization. Substrate (Anaspec, AS-60210-5) and ATP (Promega V9102) and ATP mix was prepared by dilution in kinase assay buffer for 434.4 μM and 64.4 μM final assay concentrations, respectively. Compounds and control were added to 25 ng DNA-PK enzyme (Invitrogen, PR9107A) diluted in kinase buffer in assay plate (Corning 267459) and incubated for 15 minutes at room temperature prior to addition of substrate and ATP mix.
Throughout the assay, each time a reagent was added to the microplate, it was centrifuged for 1 minute at 1300 rcf. All reagents were added, and incubations carried out at room temperature. The reaction was then incubated for 60 minutes. ADP-ATP standards at 0, 4, 10, 40, 80, and 100% ADP (prepared as specified in the ADP Glo™ Kinase assay kit) were also added to the microplate at a volume equal to the total kinase reaction. The ADP Glo™ Kinase Assay kit was then used to quantify DNA-PK activity: following the 60-minute incubation, a 1:1 volume of ADP Glo reagent was added to all wells, then following a further 45-minute incubation, a 1:1 volume of Kinase Detection Reagent was added to all wells. After this two-step assay, plates were incubated in a Synergy-Neo2 plate reader for 30 minutes with gentle shaking, followed by endpoint luminescent read Luminescence data was normalized by subtracting the background signal and expressing all background-adjusted values as a percentage of the average maximum signal. The data was then expressed as percent inhibition by subtracting from 100% (i.e. maximum luminescent signal will be 0% inhibition) and the resulting data plotted against ten concentration points on a logarithmic scale, using GraphPad Prism. Non-linear regression analysis was performed on each concentration response curve and the log [inhibitor] vs response—variable slope (four parameters) equation was selected to generate IC50 values.

Experiment [1] has as its target T2, DNA-PK phosphorylation at Serine 2056 (Homo sapiens, UniProt P78527).
T2 construct: host or cells: FaDu
Description: Cellular Assay for Inhibition of DNA-PK Phosphorylation at Serine 2056 (FaDu cells, neocarzinostatin, sandwich ELISA). Format: cell-based. The procedure, abridged: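 FaDu cells were pretreated with compound (0.3% DMSO) for 1 h, then exposed to neocarzinostatin at 1 μg/mL final for 2 h to induce DSBs. Protein-normalized lysates were assayed by MSD sandwich ELISA for total and pSer2056 DNA-PK. IC50 came from variable-slope fits of % inhibition relative to DMSO and NCS controls.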

Experiment [2] has as its target T3, pDNA-PK ser2056 induction in HCT116 spheroids (Homo sapiens, UniProt P78527).
T3 construct: endogenous in cells; host or cells: HCT116 multicellular tumour spheroids
The experiment can be described thus: Multicellular tumour spheroid + radiation, pDNA-PK inhibition, HCT116. Format: cell-based. As to conditions: 20 Gy. The method, then:
Multicellular tumour spheroids determination of compound inhibition of pDNA-PK induction following radiation. Tumour spheroids were grown to approximately 0.5 mm in diameter and irradiated with 20 Gy in combination with inhibitor test compounds to determine their potency. Inhibitor concentration for 50% reduction in pDNA-PK induction (IC50) was determined via immunohistochemical staining in spheroid cryosections taken 2 hours following radiation.
Spheroid, Cell Line: […], Immunohistochemical endpoint, pDNA-PK inhibition, EC50 in μm.
Spheroid+radiation pDNA-PK. Radiation: 20 Gy. Drug: serial dilution 5 or 10 μM down to 3.5 nM (11 wells). Spheroids: 3-6 spheroids per well (300-500 μm diameter). 20% O2 and 5% CO2. 96 well plate format.
Protocol: pre-incubate 1 hours with drug, irradiate with 20 Gy, post-incubate 2 hours with drug, freeze and cryosection ×3 replicates.
Endpoint: fluorescent immunostin pDNA-PK ser2056 and image on microscope.
Analysis: determine EC50 concentration that decreases pDNA-PK induction by 50% after radiation.
Multicellular tumour spheroids determination of compound inhibition of pDNA-PK induction following radiation. Tumour spheroids were grown to approximately 0.5 mm in diameter and irradiated with 20 Gy in combination with inhibitor test compounds to determine their potency. Inhibitor concentration for 50% reduction in pDNA-PK induction (IC50) was determined via immunohistochemical staining in spheroid cryosections taken 2 hours following radiation. For cell survival endpoint 8 Gy radiation was used and 3 hours following radiation spheroids were dissociated, counted and plated for colony forming endpoint.
Spheroid+radiation pDNA-PK. Radiation: 20 Gy. Drug: serial dilution 5 or 10 μM down to 3.5 nM (11 wells). Spheroids: 3-6 spheroids per well (300-500 μm diameter). 20% O2 and 5% CO2. 96 well plate format. Endpoint: fluorescent immunostain pDNA-PK ser2056 and image on microscope. Analysis: determine EC50 concentrations that decreases pDNA-PK induction […] after irradiation.
Multicellular tumour spheroids were used to determine potency of test compounds in a 3D tissue environment using inhibition of pDNA-PK induction following radiation or cell survival as the endpoint. For the pDNA-PK endpoint HCT116 or FaDU tumour spheroids were grown to approximately 0.5 mm in diameter and irradiated with 20 Gy in combination with inhibitor test compounds to determine their potency. Experiments were carried out in 96 well plates containing 0.7 mls of MEM media containing 10% FBS and 10 mM glucose under 20% O2 & 5% CO2 at 37° C. Following dilution of compounds 1:1000 from DMSO stocks, compounds were serially diluted from 10 μM down to 3.5 nM and 5-10 spheroids added. 96 well plates were constantly stirred to avoid spheroids settling during the course of the experiment. The inhibitor concentration for 50% reduction in pDNA-PK induction (EC50) was determined via immunohistochemical staining in spheroid cryosections taken 2 hours following radiation using anti-pDNA-PK (ser 2056) and fixed immediately in formalin following sectioning. For cell survival endpoint 8 Gy radiation was used and, 3 hours following radiation, spheroids were dissociated, counted and plated for colony forming endpoint. Data presented in the table compound potency as EC50 [μM].

[3] abbreviates: Example 7, spheroid, cell line HCT115 [sic], 20% O2, read-out: EC50 (pDNA-PK inhibition, immunohistochemical endpoint).
Setting [4] is: Example 9 Study 2, 20% O2, read-out: Spheroid Cell line: HCT116 Immunohistochemical endpoint pDNA-PK inhibition EC50.
[5] abbreviates: Example 8, spheroid, read-out: Cell line: HCT116 Immunohistochemical endpoint pDNA-PK inhibition EC50.

Where two headings read alike, the source gives them in different places.

On to `CC(C)S(=O)(=O)Nc1cnc2cc(N3CCOCC3)nc(O[C@H]3CC[C@@H](Nc4ncccn4)CC3)c2c1` [Compound 187, N-(7-morpholino-5-(((1s,4s)-4-(pyrimidin-2-ylamino)cyclohexyl)oxy)-1,6-naphthyridin-3-yl)propane-2-sulfonamide], for which the half-inhibitory concentration (IC50) lay within 0.001 to 0.01 µM at DNA-PK (Table 1) and 1 to 10 µM in experiment [1] (Table 1). Also, the 50% effective concentration (EC50) in experiment [2] (setting [3]) and in experiment [2] (setting [4]) was 10 to 100 µM each time.

Regarding `CCCC(=O)N[C@H]1CC[C@@H](Oc2nc(N3CCOCC3)cc3ncccc23)CC1` [Compound 103, N-((1s,4s)-4-((7-Morpholino-1,6-naphthyridin-5-yl)oxy)cyclohexyl)butyramide], the results for the IC50 (at DNA-PK (Table 1); in experiment [1] (Table 1)) were 0.001 to 0.01 µM and 0.1 to 1 µM, respectively. The EC50 in experiment [2] (setting [3]), in experiment [2] (setting [5]) and in experiment [2] (setting [4]) was 10 to 100 µM in each case.

`FC(F)(F)c1ccnc(N[C@H]2CC[C@@H](Oc3nc(N4CCOCC4)cc4ncccc34)CC2)n1` [Compound 47, N-((1s,4s)-4-((7-morpholino-1,6-naphthyridin-5-yl)oxy)cyclohexyl)-4-(trifluoromethyl)pyrimidin-2-amine]: the concentration for half-maximal inhibition (IC50) on DNA-PK (Table 1) was 0.001 to 0.01 µM; in experiment [1] (Table 1), < 0.1 µM. For the same compound, the concentration giving a half-maximal response (EC50) in experiment [2] (setting [3]) and in experiment [2] (setting [4]) was 1 to 10 µM in each case.

As for `c1cnc2cc(N3CCOCC3)nc(O[C@H]3CC[C@@H](Nc4ccc5ncnn5c4)CC3)c2c1` [Compound 92, N-((1s,4s)-4-((7-Morpholino-1,6-naphthyridin-5-yl)oxy)cyclohexyl)-[1,2,4]triazolo[1,5-a]pyridin-6-amine], the IC50 on DNA-PK (Table 1) is 0.001 to 0.01 µM; in experiment [1] (Table 1), 0.1 to 1 µM. The EC50 in experiment [2] (setting [3]) and in experiment [2] (setting [4]) was 1 to 10 µM in each case.

In the case of `Clc1nc(N[C@H]2CC[C@@H](Oc3nc(N4CCOCC4)cc4ncccc34)CC2)c2occc2n1` [Compound 80b, 2-chloro-N-((1s,4s)-4-((7-morpholino-1,6-naphthyridin-5-yl)oxy)cyclohexyl)furo[3,2-d]pyrimidin-4-amine], the IC50 at DNA-PK (Table 1) was < 0.0005 µM; in experiment [1] (Table 1), 0.1 to 1 µM. For the same compound, the EC50 in experiment [2] (setting [3]) and in experiment [2] (setting [4]) was 1 to 10 µM each time.

As to `c1cnc2cc(N3CCOCC3)nc(O[C@H]3CC[C@@H](Nc4ccc5nccn5n4)CC3)c2c1` [Compound 90, N-((1s,4s)-4-((7-Morpholino-1,6-naphthyridin-5-yl)oxy)cyclohexyl)imidazo[1,2-b]pyridazin-6-amine], the IC50 at DNA-PK (Table 1) is 0.0005 to 0.001 µM; in experiment [1] (Table 1), 0.1 to 1 µM. The concentration giving a half-maximal response (EC50) in experiment [2] (setting [3]) and in experiment [2] (setting [4]) was 1 to 10 µM throughout.

On to `Cn1ccc(N[C@H]2CC[C@@H](Oc3nc(N4CCOCC4)cc4ncccc34)CC2)n1` [Compound 30, 1-methyl-N-((1s,4s)-4-((7-morpholino-1,6-naphthyridin-5-yl)oxy)cyclohexyl)-1H-pyrazol-3-amine], for which the IC50 lay within 0.001 to 0.01 µM at DNA-PK (Table 1) and 0.1 to 1 µM in experiment [1] (Table 1). In addition, the 50% effective concentration (EC50) in experiment [2] (setting [3]) and in experiment [2] (setting [4]) was 10 to 100 µM throughout.

As for `Cc1c(C(F)(F)F)cnn1[C@H]1CC[C@@H](Oc2nc(N3CCOCC3)cc3ncccc23)CC1` [Compound 17h, 4-(5-(((1s,4s)-4-(5-methyl-4-(trifluoromethyl)-1H-pyrazol-1-yl)cyclohexyl)oxy)-1,6-naphthyridin-7-yl)morpholine], the figures for the 50% inhibitory concentration (IC50) (on DNA-PK (Table 1); in experiment [1] (Table 1)) were 0.001 to 0.01 µM and 1 to 10 µM, respectively. In addition, the EC50 in experiment [2] (setting [3]), in experiment [2] (setting [5]) and in experiment [2] (setting [4]) was 10 to 100 µM each time.

On to `N#Cc1cnc2cc(N3CCOCC3)nc(O[C@H]3CC[C@@H](Nc4ncccn4)CC3)c2c1` [Compound 200a, 7-morpholino-5-(((1s,4s)-4-(pyrimidin-2-ylamino)cyclohexyl)oxy)-1,6-naphthyridine-3-carbonitrile], for which the values for the IC50 (at DNA-PK (Table 1); in experiment [1] (Table 1)) were 0.0005 to 0.001 µM and 0.1 to 1 µM, respectively. The EC50 in experiment [2] (setting [3]) and in experiment [2] (setting [4]) was 1 to 10 µM in each case.

With `COc1cnc(N[C@H]2CC[C@@H](Oc3nc(N4CCOCC4)cc4ncc(I)cc34)CC2)nc1` [Compound 201, N-((1s,4s)-4-((3-iodo-7-morpholino-1,6-naphthyridin-5-yl)oxy)cyclohexyl)-5-methoxypyrimidin-2-amine], the IC50 lay within 0.001 to 0.01 µM at DNA-PK (Table 1) and 10 to 30 µM in experiment [1] (Table 1). Further, the half-maximal effective concentration (EC50) in experiment [2] (setting [3]) and in experiment [2] (setting [4]) was 10 to 100 µM throughout.

On to `COc1nccnc1N[C@H]1CC[C@@H](Oc2nc(N3CCOCC3)cc3ncccc23)CC1` [Compound 39, 3-methoxy-N-((1s,4s)-4-((7-morpholino-1,6-naphthyridin-5-yl)oxy)cyclohexyl)pyrazin-2-amine], for which the 50% inhibitory concentration (IC50) is < 0.0005 µM on DNA-PK (Table 1) and 0.1 to 1 µM in experiment [1] (Table 1). For the same compound, the EC50 in experiment [2] (setting [3]) and in experiment [2] (setting [4]) was 1 to 10 µM each time.

For the compound `CN(C)c1ccnc(N[C@H]2CC[C@@H](Oc3nc(N4CCOCC4)cc4ncccc34)CC2)n1` [Compound 50, N4,N4-dimethyl-N2-((1s,4s)-4-((7-morpholino-1,6-naphthyridin-5-yl)oxy)cyclohexyl)pyrimidine-2,4-diamine], the IC50 lay in the range of 0.0005 to 0.001 µM at DNA-PK (Table 1) and 0.1 to 1 µM in experiment [1] (Table 1). Moreover, the concentration giving a half-maximal response (EC50) in experiment [2] (setting [3]) and in experiment [2] (setting [4]) was 1 to 10 µM each time.

With `CS(=O)(=O)Nc1cnc2cc(N3CCOCC3)nc(O[C@H]3CC[C@@H](Nc4ncc(C(N)=O)cn4)CC3)c2c1` [LFA028, 2-[[4-[[3-(Methanesulfonamido)-7-morpholino-1,6-naphthyridin-5-yl]oxy]cyclohexyl]amino]pyrimidine-5-carboxamide], the half-maximal inhibitory concentration (IC50) at DNA-PK (Table 2) is 0.0005 to 0.001 µM; in experiment [1] (Table 2), 1 to 10 µM.

The values are drawn from US20240246960A1 (adMare Therapeutics Society, priority 2021, published 2024).
